Results published in patent US10611748B2, “Xanthone derivatives for the treatment of hepatitis B virus disease” (Hoffmann-La Roche Inc., priority 2017, dated 2020).

Key:
[1] = system: extracellular HBeAg level (surrogate marker for cccDNA) in HepDES19 cells; test: HepDES19 primary screen assay; format: cell-based, HBV; settings: Hepatitis B virus, 120 h, 5 days compound incubation, HBeAg ELISA
Source text: The assay was employed to primarily screen for novel cccDNA inhibitors. HepDES19 is an engineered cell line which contains a 1.1 unit length HBV genome, and pgRNA transcription from the transgene is controlled by Tetracycline (Tet). In the absence of Tet, pgRNA transcription will be induced, but HBV e antigen (HBeAg) could not be produced from this pgRNA due to the fact that the very short leader sequence before the HBeAg start codondisrupted the start codon. Only after cccDNA is formed, the missing leader sequence and start codon mutation would be restored from the 3′-terminal redundancy of pgRNA, and then HBeAg could be synthesized. Therefore, HBeAg could be used as a surrogate marker for cccDNA (Zhou, T. et al., Antiviral Res(2006), 72(2), 116-124; Guo, H. et al., J. Virol (2007), 81(22), 12472-12484).
HepDES19 cells were seeded at 2×10^6 cells per T150 flask and cultured with the culture medium (Dulbecco's Modified Eagle Medium: Nutrient Mixture F-12 (DMEM:F12, Gibco Cat. 11320-82), 10% Fetal Bovine Serum (FBS, Clontech Cat. 631101), 0.1 mM Non-Essential Amino Acids Solution (NEAA, Gibco Cat. 11140-050), 50 μg/mL Penicillin-Streptomycin (PS, Invitrogen Cat. 15140-163), 500 μg/mL Geneticin (G418, Invitrogen Cat. 10131-027) containing 3 μg/mL Tet (Sigma, Cat. 87128) for 5 days. Cells were then seeded at 4×10^6 cells per T150 in the same culture medium as described above in the absence of Tet for 8 days. Cells were then harvested and frozen at density of 2×10^6 cells per mL. For compound testing, the frozen cells were thawed and seeded into 96-well plates at a density of 6×10^4 cells per well. At 24 hrs after seeding, half log serial dilutions of compounds made with Dimethyl sulfoxide (DMSO, Sigma, Cat. D2650) were further diluted with the same culture medium as described above before they were added to the cells to reach desired final compound concentrations and 1% DMSO concentration. Plates were then incubated at 37° C. for another 5 days before measurement of HBeAg level and cell viability. Extracellular HBeAg level were measured with enzyme-linked immunosorbent assay (ELISA) kit (Shanghai Kehua Diagnostic Medical Products Co., Ltd). Cell viability was assessed using Cell Counting Kit-8 (Donjindo, Cat. CK04-20). IC50 values were derived from the dose-response curve using 4 parameter logistic curve fit method.
The compounds of the present invention were tested for their capacity to inhibit extracellular HBeAg level as described herein.

[2] = system: extracellular HBsAg level in HBV-infected PHH; test: Cryopreserved primary human hepatocytes (PHH) assay, HBsAg; format: cell-based; settings: Hepatitis B virus, Hepatocyte, 216 h, read-out: HBsAg IC50
Protocol: Cryopreserved PHH (BioreclamationIVT, Lot YJM) was thawed at 37° C. and gently transferred into pre-warmed InVitroGRO HT medium (BioreclamationIVT, Cat. S03317). The mixture was centrifuged at 70 relative centrifugal force (RCF) for 3 minutes at RT, and the supernatant was discarded. Pre-warmed InVitroGRO CP medium (BioreclamationIVT, Cat # S03316) was added to the cell pellet to gently re-suspend cells. The cells were seeded at the density of 5.8×10^4 cells per well to collagen I coated 96-well plate (Gibco, Cat. A1142803) with the InVitroGRO CP medium. All plates were incubated at 37° C. with 5% CO2 and 85% humidity.
At 20 hours after plating, the medium was changed to PHH culture medium (Dulbecco's Modified Eagle Medium (DMEM)/F12 (1:1) (Gibco, Cat. 11320-033), 10% fetal bovine serum (Gibco Cat. 10099141), 100 U/mL penicillin, 100 μg/mL streptomycin (Gibco, Cat. 151401-122), 5 ng/mL human epidermal growth factor (Invitrogen Cat. PHG0311L), 20 ng/mL dexamethasone (Sigma, Cat. D4902) and 250 ng/mL human recombinant insulin (Gibco, Cat. 12585-014)). And the cells were incubated at 37° C. with 5% CO2 and 85% humidity for 4 hours. The medium was then changed to pre-warmed PHH culture medium containing 4% polyethylene glycol (PEG) MW8000 (Sigma, Cat. P1458-50ML) and 1% DMSO (Sigma, Cat. D2650). 5.8×10^6 genomic equivalents of HBV were added into the medium.
At 24 hours post-infection, the cells were gently washed with PBS and refreshed with PHH culture medium supplemented with 1% DMSO, and 0.25 mg/mL Matrix gel (Corning, Cat. 356237) at 200 μL per well. All plates were immediately placed in at 37° C. CO2 incubator.
24 hours later, serial dilutions of compounds made with DMSO were further diluted with the same culture medium (PHH culture medium supplemented with 1% DMSO and 0.25 mg/mL Matrix gel as described above) before they were added to the cells to reach desired final compound concentrations and 1% DMSO concentration. The medium containing the compounds were refreshed every three days.
At 9 days post-compound treatment, extracellular HBsAg level were measured with Chemiluminescence Immuno Assay (CLIA) kit (Autobio, HBsAg Quantitative CLIA). Extracellular HBV DNA was extracted by MagNA Pure 96 system (Roche) and then determined by quantitative PCR with the following primers and probe: HBV-Forward Primer (SEQ ID NO:2): […] (5′ to 3′); HBV-Reverse Primer (SEQ ID NO:3): […](5′ to 3′); HBV-Probe: 5′+tetramethylrhodamine+SEQ ID NO:4+black hole quencher 2-3′, wherein SEQ ID NO:4 is […].
HBsAg IC50 and HBV DNA IC50 values were derived from the dose-response curve using 4 parameter logistic curve fit method.

Row | Compound | IC50 [1] [µM] | IC50 [2] [µM]
1 | O=C(O)C1CCN(c2cc3oc4c(Cl)cccc4c(=O)c3cc2Cl)C1 (centres unmarked) [Example 43, 1-(2,5-dichloro-9-oxo-xanthen-3-yl)pyrrolidine-3-carboxylic Acid] | 1.11 | 8.22
2 | COc1cc(O[C@@H]2O[C@H](CO)[C@@H](O)[C@H](O)[C@H]2O)c2c(=O)c3c(O)ccc(O)c3oc2c1 [Swertianolin, 5,8-dihydroxy-3-methoxy-1-[(2S,3R,4S,5S,6R)-3,4,5-trihydroxy-6-(hydroxymethyl)tetrahydropyran-2-yl]oxy-xanthen-9-one, reference compound] | > 100 | > 100
3 | Cc1cc2c(=O)c3cccc(Cl)c3oc2cc1N1CCC(C(=O)O)C1 (centres unmarked) [Example 39, 1-(5-chloro-2-methyl-9-oxo-xanthen-3-yl)pyrrolidine-3-carboxylic Acid] | 1.08 | 3.18
4 | O=C(O)C1CCN(c2cc3oc4c(Cl)cccc4c(=O)c3cn2)C1 (centres unmarked) [Example 41, 1-(6-chloro-10-oxo-chromeno[3,2-c]pyridin-3-yl)pyrrolidine-3-carboxylic Acid] | 4.04 | 8.08
5 | O=C(O)C1CCN(c2ccc3c(=O)c4c(C(F)(F)F)ccc(Cl)c4oc3c2)C1 (centres unmarked) [Example 67, 1-[5-chloro-9-oxo-8-(trifluoromethyl)xanthen-3-yl]pyrrolidine-3-carboxylic Acid] | 0.39 | 1.29
6 | O=C(O)C1CCN(c2ccc3c(=O)c4c(O)ccc(Cl)c4oc3c2)C1 (centres unmarked) [Example 53, 1-(5-chloro-8-hydroxy-9-oxo-xanthen-3-yl)pyrrolidine-3-carboxylic Acid] | 3.43 | 8.12
7 | Cc1ccc(Cl)c2oc3cc(N4CCC(C(=O)O)C4)ccc3c(=O)c12 (centres unmarked) [Example 40, 1-(5-chloro-8-methyl-9-oxo-xanthen-3-yl)pyrrolidine-3-carboxylic Acid] | 1.31 | 1.69
8 | O=C(O)[C@H]1CN(c2ccc3c(=O)c4cccc(Cl)c4oc3c2)C[C@@H]1c1cccnc1 [Example 18, (3R,4S)-1-(5-chloro-9-oxo-xanthen-3-yl)-4-(3-pyridyl)pyrrolidine-3-carboxylic Acid] | 16.6 | 
9 | Fc1cccc2c1Oc1cc(N3CCCC3)ccc1C21CCCO1 (centres unmarked) [Example 52, 1-(5′-fluorospiro[tetrahydrofuran-2,9′-xanthene]-3′-yl)pyrrolidine] | 14.5 | 
10 | O=c1c2cnc(N3CCCC3)cc2oc2c(F)cccc12 [Example 45, 6-fluoro-3-pyrrolidin-1-yl-chromeno[3,2-c]pyridin-10-one] | 0.51 | 
11 | Cc1cc2c(=O)c3cccc(Cl)c3oc2cc1N1CC[C@@H](C(=O)O)C1 [Example 74, (3R)-1-(5-chloro-2-methyl-9-oxo-xanthen-3-yl)pyrrolidine-3-carboxylic Acid] | 2.6 | 
12 | O=C(O)C1CCN(c2ccc3c(=O)c4c(F)ccc(Cl)c4oc3c2)C1 (centres unmarked) [Example 66, 1-(5-chloro-8-fluoro-9-oxo-xanthen-3-yl)pyrrolidine-3-carboxylic Acid] | 1.91 | 8.48
13 | O=C(O)C1CCN(c2ccc3c(=O)c4cccc(Cl)c4sc3c2)C1 (centres unmarked) [Example 6, 1-(5-chloro-9-oxo-thioxanthen-3-yl)pyrrolidine-3-carboxylic acid] | 4.94 | 5.06
14 | O=c1c2ccc(N3CCC4(CNC4)C3)cc2oc2c(F)cccc12 [Example 47, 3-(2,6-diazaspiro[3.4]octan-6-yl)-5-fluoro-xanthen-9-one] | 4.77 | 
15 | COC1CCN(c2ccc3c(=O)c4cccc(F)c4oc3c2)C1 (centres unmarked) [Example 33, 5-fluoro-3-(3-methoxypyrrolidin-1-yl)xanthen-9-one] | 4.06 | 
16 | O=c1c2ccc(N3CCC(O)C3)cc2oc2c(F)cccc12 (centres unmarked) [Example 24, 5-fluoro-3-(3-hydroxypyrrolidin-1-yl)xanthen-9-one] | 1.05 | 
17 | N#Cc1ccc(Cl)c2oc3cc(N4CCC(C(=O)O)C4)ccc3c(=O)c12 (centres unmarked) [Example 44, 1-(5-chloro-8-cyano-9-oxo-xanthen-3-yl)pyrrolidine-3-carboxylic Acid] | 1.1 | 12.4
18 | Cc1cc2c(=O)c3cccc(F)c3oc2cc1N1CCCC1 [Example 25, 5-fluoro-2-methyl-3-pyrrolidin-1-yl-xanthen-9-one] | 1.52 | 
19 | O=c1c2ccc(N3CC[C@@H](O)C3)cc2oc2c(Cl)cccc12 [Example 30, 5-chloro-3-[(3R)-3-hydroxypyrrolidin-1-yl]xanthen-9-one] | 2.63 | 
20 | O=c1c2ccc(N3CC[C@H](O)C3)cc2oc2c(Cl)cccc12 [Example 27, 5-chloro-3-[(3S)-3-hydroxypyrrolidin-1-yl]xanthen-9-one] | 1.95 | 
21 | N[C@@H]1CCN(c2ccc3c(=O)c4cccc(F)c4oc3c2)C1 [Example 51, 3-[(3R)-3-aminopyrrolidin-1-yl]-5-fluoro-xanthen-9-one] | 4.85 | 
22 | Clc1cccc2c1Oc1cc(N3CCCC3)ccc1C2C1COC1 (centres unmarked) [Example 57, 1-[5-chloro-9-(oxetan-3-yl)-9H-xanthen-3-yl]pyrrolidine] | 7.33 | 
23 | O=C(O)CC1CCN(c2ccc3c(=O)c4cccc(Cl)c4oc3c2)C1 (centres unmarked) [Example 8, 2-[1-(5-chloro-9-oxo-xanthen-3-yl)pyrrolidin-3-yl]acetic Acid] | 7.53 | 
24 | FC(F)(F)C1c2ccc(N3CCCC3)cc2Oc2c(Cl)cccc21 (centres unmarked) [Example 61, 1-[5-chloro-9-(trifluoromethyl)-9H-xanthen-3-yl]pyrrolidine] | 31 | 
25 | O=C(O)C1CCCN1c1ccc2c(=O)c3cccc(Cl)c3oc2c1 (centres unmarked) [Example 36, 1-(5-chloro-9-oxo-xanthen-3-yl)pyrrolidine-2-carboxylic Acid] | 11.5 | 
26 | O=C(O)C1CCN(c2cc3oc4c(Cl)cccc4c(=O)c3cc2F)C1 (centres unmarked) [Example 42, 1-(5-chloro-2-fluoro-9-oxo-xanthen-3-yl)pyrrolidine-3-carboxylic Acid] | 1.17 | 7.74
27 | CC1c2ccc(N3CCCC3)cc2Oc2c(Cl)cccc21 (centres unmarked) [Example 54, 1-(5-chloro-9-methyl-9H-xanthen-3-yl)pyrrolidine] | 1.6 | 
